Test results reported in article PMC11952846, “The sterol-regulating human ARV1 binds cholesterol and phospholipids through its conserved ARV1 homology domain” (The Journal of Biological Chemistry, 2025).
Substitutions are numbered along the chain they refer to.

How the values were obtained:
[1] = molecular target: T1, GST-ARV1 (full-length ARV1) (Homo sapiens, UniProt Q9H2C2); experiment: Protein-lipid liposome binding assay (ultracentrifugation, Western blot); details: protein detected in final pellet
T1 construct: Expresses full length ARV1; made in house; host or cells: E. coli BL21 (pGEX-4T1)
T1 sequence (Q9H2C2 1-271): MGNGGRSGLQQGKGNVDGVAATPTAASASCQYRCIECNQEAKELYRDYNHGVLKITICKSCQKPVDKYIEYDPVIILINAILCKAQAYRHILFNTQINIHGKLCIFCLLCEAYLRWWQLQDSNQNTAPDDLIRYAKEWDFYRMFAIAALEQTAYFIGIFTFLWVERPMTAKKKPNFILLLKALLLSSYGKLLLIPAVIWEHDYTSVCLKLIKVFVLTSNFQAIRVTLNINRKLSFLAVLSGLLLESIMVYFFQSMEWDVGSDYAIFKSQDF
Experimental: (§1) Lyophilized lipids were reconstituted in chloroform at 10 mg/ml and stored in glass tubes with Teflon tops at −20 °C until use. One milliliter of 10 mg/ml stock was dried under a stream of nitrogen in a glass tube until a lipid cake/film was formed. The lipid cake was then rehydrated in BLT rehydration buffer (5 mM Tris/HCl, pH 7.4, containing 150 mM NaCl) to a concentration of 1 mg/ml. Lipid suspensions were subjected to three freeze/thaw cycles using a dry ice ethanol/[…] water bath to encapsulate the buffer and improve liposome formation. The suspension and lipid extruder were equilibrated to temperature for 10 min and liposomes were extruded using […] polycarbonate membranes (Avestin). Liposomes were made by mixing stock lipid PL (1 mg/ml) with PC (10 mg/ml).
Cholesterol composition liposomes were rehydrated with cholesterol rehydration buffer (10 mM Hepes, pH 7.4, containing 150 mM KCl).
(§2) Liposomes were serial diluted in floatation buffer (100 mM NaCl, 2 mM EDTA, pH 5.5) to a final concentration of 0.1 mg/ml. Nine hundred microliters of liposome solution was placed in clear ultracentrifuge tubes and mixed with 100 μl of 0.01 μg/ml of protein. The liposome/protein solution was incubated at room temperature for 1 h with occasional shaking. An initial 100 μl of liposome/protein solution (liposomes) was removed and the remaining 900 μl was centrifuged at 50,000g for 20 min at 4 °C. The pellet was resuspended in 800 μl of fresh floatation buffer, centrifuged as above, and 800 μl of supernatant was removed (wash 1). This was repeated a second time and again 800 μl of supernatant was removed (wash 2). The final pellet was resuspended in 100 μl of floatation buffer plus SDS treatment buffer (pellet). Thirty microliters of each fraction was run on a 15% SDS-PAGE gel and probed with an anti-GST monoclonal antibody at a 1:1500 dilution.

[2] = molecular target: GST-Annexin A2 (Homo sapiens, UniProt P07355); experiment: Protein-lipid liposome binding assay (positive control protein); details: protein detected in final pellet
Experimental: as §1, §2

[3] = molecular target: T1, GST-ARV1 (full-length ARV1); experiment: Lipid overlay far western; type: binding
Experimental: (§3) Lipid overlays were blocked in TBST-BSA (100 mM Tris–HCl buffer, pH 7.5, 150 mM NaCl, 0.5% Tween 20, 3% bovine serum albumin) for 1 h and subsequently washed eight separate times with TBST for 2 min each. Overlays were incubated with 0.5 μg/ml GST-tagged or 6XHIS-tagged proteins in 3% TBST-BSA buffer containing 0.1% Triton X-100, for 1 h at room temperature and washed as above. Overlays were incubated with either anti-GST or anti-6XHIS monoclonal antibodies at a 1:1000 dilution in TBST-BSA for 1 h at room temperature followed by eight washes in TBST. Overlays were visualized using Immobilon Western Chemiluminescent horseradish peroxidase substrate and protein–lipid interaction was detected using a GE ImageQuant LAS 3000 imager.

[4] = molecular target: T2, GST-ARV1-N98 (Homo sapiens, UniProt Q9H2C2); experiment: Lipid overlay far western; type: binding
T2 construct: Expresses amino-terminal 98 amino acids of ARV1; made in house; host or cells: E. coli BL21 (pGEX-4T1)
T2 sequence (Q9H2C2 1-98): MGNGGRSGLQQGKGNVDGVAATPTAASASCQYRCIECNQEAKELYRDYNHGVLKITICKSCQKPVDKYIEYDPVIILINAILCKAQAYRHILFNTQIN
Experimental: as §3

[5] = molecular target: T3, 6XHIS-N98 K84A (Homo sapiens, UniProt Q9H2C2, K84A); experiment: HTRF phospholipid lipid-binding assay, mutant; design: key to Bio-PL, EC50, M ± S.D.: NC, no change; details: biotinylated lipid, NC = no change vs N98
T3 construct: made in house; host or cells: E. coli BL21
T3 sequence (Q9H2C2 1-98 K84A): T2 sequence (Q9H2C2 1-98) with K84A
From the text: An HTRF assay was developed for 6XHIS-ARV1-N98-lipid binding. HTRF measures analyte interactions through fluorescence resonance energy transfer technology and time-resolved measurements ([53]). The interaction between two molecules can be quantified through binding each individual molecule involved with a fluorescent label and then analyzing the transfer of energy between the initial donor fluorophore and the secondary acceptor fluorophore. Following excitation of the first fluorophore, transfer of energy can only occur if the molecules bound with the fluorescent tags are within proximity to each other.
Assays were plated in 384-well flat bottom microplates (Greiner Bio, catalog #784075-25). Proteins were diluted using binding buffer (20 mM Hepes buffer, pH 7.2, containing 0.1% BSA, and 0.01% Tween20) to a stock concentration of 0.75 μM, and biotinylated phospholipids were dispensed, dried under nitrogen gas, and resuspended in binding buffer to a stock concentration of 50 μM. The lipid stock solution was diluted by 1:2 for a series of 12 serial dilutions. For the assay, in sequential order, 6 μl of binding buffer was loaded into the plate in triplicate for each dilution of phospholipid. To this, 2 μl of 0.75 μM 6XHIS-ARV1-N98 was added, followed by 2 μl of biotinylated phospholipid. Immediately following each addition loaded into the plate, the plate was centrifuged for 1 min at 1000 rpm to bring the contents to the bottom of the well. Next, detection antibodies were mixed with detection buffer (20 mM Hepes buffer, pH 8.5, containing 0.01% BSA and 200 mM KF). Antibodies were a MAb anti-6XHIS Europium kryptate-conjugated D1 fluorescent antibody (Cisbio, #61HISKLA) and Streptavidin-conjugated d2 fluorescent antibody (Cisbio, #610SADLA). For each 1000 μl of detection buffer, 5 μl of each antibody was added just prior to loading 10 μl into each well. The plate was again centrifuged for 1 min at 1000 rpm and stored in a sealed container overnight, in the dark. Plates were read on a PerkinElmer EnVision Xcite Multilabel plate reader.
Curves were logarithmically transformed and normalized to a common scale before being fit with a nonlinear regression of the agonist against the normalized response. This generated half maximal effective concentration values (EC50; M) that could then be compared between different lipids. In the context of our study, EC50 values were defined as a measure of protein sensitivity to binding to a particular lipid within a dose response curve. For phospholipid competition analysis, IC50; M values were determined using nonlinear regression of the inhibitor against normalized response.

[6] = lipid-embedded membrane strips, incl. sphingolipid strip
[7] = PIP lipid membrane strip, 100pmol-1.56pmol per spot

Sequence of GST-Annexin A2 (P07355 whole entry): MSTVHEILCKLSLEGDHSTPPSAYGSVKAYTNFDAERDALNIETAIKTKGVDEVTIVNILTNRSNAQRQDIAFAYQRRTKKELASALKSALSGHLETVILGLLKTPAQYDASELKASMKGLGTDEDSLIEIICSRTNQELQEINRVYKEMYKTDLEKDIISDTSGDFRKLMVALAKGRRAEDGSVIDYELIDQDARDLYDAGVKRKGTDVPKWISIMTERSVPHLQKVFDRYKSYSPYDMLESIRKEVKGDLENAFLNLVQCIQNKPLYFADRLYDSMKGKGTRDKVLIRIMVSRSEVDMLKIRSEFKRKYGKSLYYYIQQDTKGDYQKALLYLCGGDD

| Compound | binding to PC:PL liposomes [1] | binding to PC:PL liposomes [2] | lipid-protein interaction [3, 6] | lipid-protein interaction [4, 6] | Bio-PL, EC50, M ± S.D. [5] | lipid-protein interaction [3, 7] | lipid-protein interaction [4, 7] | EC50 ([5]; read-out: Bio-PL, EC50, M ± S.D.) [nM] |
| --- | --- | --- | --- | --- | --- | --- | --- | --- |
| CCCCC/C=C\C/C=C\CCCCCCCC(=O)OC[C@H](COP(=O)(O)OCC(O)COP(=O)(O)OC[C@@H](COC(=O)CCCCCCC/C=C\C/C=C\CCCCC)OC(=O)CCCCCCC/C=C\C/C=C\CCCCC)OC(=O)CCCCCCC/C=C\C/C=C\CCCCC (some centres unmarked) [CL, cardiolipin] | bound | bound | interacted | interacted | – | – | – | – |
| CCCCCCCCCCCCCCCC(=O)OC[C@H](COP(=O)(O)O)OC(=O)CCCCCCCCCCCCCCC [PA, phosphatidic acid] | bound | bound | – | – | NC | – | – | – |
| CCCCCCCC/C=C\CCCCCCCC(=O)OC[C@H](COP(=O)(O)OCC(O)CO)OC(=O)CCCCCCC/C=C\CCCCCCCC (some centres unmarked) [PG, phosphatidylglycerol] | bound | bound | weakly | interacted | reduced | – | – | – |
| CCCCCCCCCCCCCCCCCC(=O)OC[C@H](COP(=O)(O)OC[C@H](N)C(=O)O)OC(=O)CCCCCCCCCCCCCCCCC [PS, phosphatidylserine] | bound | bound | interacted | interacted | NC | – | – | – |
| CCCCCC(=O)O[C@H](COC(=O)CCCCCNC(=O)CCCC[C@@H]1SC[C@@H]2NC(=O)N[C@@H]21)COP(=O)(O)O[C@H]1[C@H](O)[C@@H](O)[C@H](OP(=O)(O)O)[C@@H](O)[C@H]1O [reference compound] | – | – | weakly | interacted | – | weakly | interacted | – |
| phosphatidylcholine [PC] | very weakly | very weakly | – | – | NC | – | – | – |
| phosphatidylethanolamine [PE] | Neither | Neither | not seen | not seen | – | – | – | 210 |
